Values belong to the compound of their own block, whether it stands above or below them.
What was measured:
E. Coli XL-1 blue strain = assay: Growth assay for E. coli (optical density at 610 nm); format: cell-based; settings: LB medium, 37° C., one day; read-out: IC50 (μM) E. coli proliferation
Procedure: We used the E. Coli XL-1 blue strain (Stratagene) for the investigation of antibacterial activity. During this experiments LB medium was used for E. coil growth. LB was prepared as follows: 1% trypton (weight/volume), 0.5% Yeast extract (weight/volume), and 1.5% NaCl (weight/volume) were dissolved in water and autoclaved. The media contained the inhibitor at 100 μM, 10 μM, or 1 μM concentrations, respectively.
The assay was performed as follows: bacteria were seeded to 96-well plates containing the respective inhibitors. The bacteria-containing plates were incubated at 37° C. for one day. After incubation time, E. coli growth was assayed by the measurement of the optical density at 610 nm wavelength.

[1] = test system: T-cell-tropic HIV-1NL4/3 strain; assay: Inhibition of T-cell-tropic HIV-1 NL4/3 replication in de novo infected Jurkat cells (p24 antigen); format: cell-based
Procedure: (§1) HIV replication was measured either by p24 HIV Antigen Capture Assay Kit (ELISA; HIVAG-1 Monoclonal kit BIA011; Abbott) following the manufacturer's recommendation, or by using the Quantiplex HIV-1 RNA 3.0 Assay (bDNA) system (Chiron Diagnostics). The latter assay is a signal amplification nucleic acid probe assay (employing a sandwich nucleic acid hybridization procedure) for direct quantitation of HIV RNA in human plasma. There, in brief, HIV-1 is first concentrated from plasma by centrifugation. After release of genomic HIV-1 RNA from the virions, the RNA is captured to a microwell by a set of specific, synthetic oligonucleotide capture probes. A set of target probes hybridize to both the viral RNA and the pre-amplifier probes. The capture probes, comprised of 17 individual capture extenders, and the target probes, comprised of 81 individual target extenders, bind to different regions of the pol gene of the viral RNA. The amplifier probe hybridizes to the pre-amplifier forming a branched DNA (bDNA) complex. Then, multiple copies of an alkaline phosphatase labeled probe are hybridized to this immobilized bDNA complex. Detection is achieved by incubating the entire complex with a chemoluminescent substrate. Light emission is directly proportional to the amount of HIV-1 RNA present in each sample, and results are recorded as relative light units by an appropriate analyzer.
(§2) Jurkat cells (species: human T-cell leukemia; special characteristics: cells are permissive for growth of T-cell tropic HIV strains; source:ATCC Cat.No. TIB 152) or PM1 cells (species: clonal derivative of human HUT 78 cells; special characteristics: cells are permissive for growth of macrophage-tropic and T-cell tropic HIV strains; source: Dr. Marvin Reitz, courtesy of the NIH AIDS Research and Reference Reagent Program Cat.No. 3038) were stimulated with Phytohemagglutinin (PHA-P, Product No. L9132 from Sigma) in a concentration of 2 μg/ml (1.5×10^6 cells/ml) and Hexadimethrine Bromide (Polybrene, Product No. H9268 from Sigma) in a concentration of 2 μg/ml (1.5×10^6 cells/ml) in RPMI 1640 medium containing 10% fetal calf serum (FCS, Pansystems GmbH) and antibiotics for 3 days.
(§3) For HIV-1 infection, 5×10^7 cells were resuspended in 500 μl culture medium without test drugs and incubated in a 50 ml blue-cap-tube at 37° C. for 5 hrs with HIV-1 high titer viral stocks. Jurkat cells were infected with the T-cell tropic strain HIV-1 NL4-3, PM1 cells with the macrophage tropic strain HIV-1 Ba-L (both from the NIH AIDS Research and Reference Reagent Program). After infection, cells were washed twice with PBS without Ca^2+ and Mg^2+ to avoid false positive p24 antigen determination. Cells were resuspended, and identical aliquots (1×10^6/ml) of infected cells were further cultured in 10 ml medium with test drugs at various concentrations, or in medium with DMSO as control for calculation of the inhibition of virus replication (in %].
(§4) Culture medium was changed and cells were split at days 3 and 7 of the experiments. Viability of the cells (Trypan-blue staining), cell counts and p24 antigen levels were determined at days 3, 7 and 10 of the experiments. No significant differences in cell viability were observed (˜85-90% living cells).
(§5) At day 10 of infection, the HIV strains replicated vigorously in untreated cultures. Numbers describe percent inhibition of HIV replication as compared to control experiments.

[2] = target: T1, deoxyhypusine synthase (DHS) (Homo sapiens, UniProt P49366); assay: In vitro DHS screening assay (hypusine formation on eIF-5A); format: biochemical
T1 construct: made in house; host or cells: E. coli BL21 (DE3), pGex vector
T1 sequence (P49366 1-369): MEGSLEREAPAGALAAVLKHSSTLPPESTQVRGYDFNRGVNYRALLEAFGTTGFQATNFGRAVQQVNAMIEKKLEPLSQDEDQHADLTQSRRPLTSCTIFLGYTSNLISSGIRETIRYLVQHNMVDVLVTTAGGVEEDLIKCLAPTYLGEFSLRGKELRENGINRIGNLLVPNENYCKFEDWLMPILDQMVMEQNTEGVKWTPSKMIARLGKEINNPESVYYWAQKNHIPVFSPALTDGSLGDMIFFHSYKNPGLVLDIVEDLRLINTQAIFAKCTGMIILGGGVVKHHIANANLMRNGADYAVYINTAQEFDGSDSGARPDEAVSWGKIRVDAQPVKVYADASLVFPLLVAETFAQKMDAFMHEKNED

[3] = test system: macrophage-tropic HIV-1Ba-L strain; assay: Inhibition of macrophage-tropic HIV-1 Ba-L replication in de novo infected PM1 cells (p24 antigen); format: cell-based
Procedure: as §1, §2, §3, §4, §5

inhibition of the hypusine formation on the elF-5A protein [2]: potent inhibitors
Compound: CC(=NNC(=N)N)c1cc(NC(=O)CCC(=O)Nc2cc(C(C)=NNC(=N)N)cc(C(C)=NNC(=N)N)c2)cc(C(C)=NNC(=N)N)c1 [Compound 5, N,N′-bis (3,5-diacetylphenyl) butane diamide tetrakis (amidinohydrazone)]
IC50 (E. Coli XL-1 blue strain): < 0.1 µM | percent inhibition of HIV replication as compared to control ([1]; HIV-1 NL4/3, 1.0 μM, d7): 26% | percent inhibition of HIV replication as compared to control ([1]; HIV-1 NL4/3, 1.0 μM, d10): 0% | percent inhibition of HIV replication as compared to control ([1]; HIV-1 NL4/3, 5.0 μM, d7): 70% | percent inhibition of HIV replication as compared to control ([1]; HIV-1 NL4/3, 5.0 μM, d10): 16% | percent inhibition of HIV replication as compared to control ([3]; 1.0 μM, d7): 48% | percent inhibition of HIV replication as compared to control ([3]; 1.0 μM, d10): 35% | percent inhibition of HIV replication as compared to control ([3]; 5.0 μM, d7): 97% | percent inhibition of HIV replication as compared to control ([3]; 5.0 μM, d10): 86%

inhibition of the hypusine formation on the elF-5A protein [2]: potent inhibitors
Compound: C/C(=N\N=C(N)N)c1ccc(NC(=O)Nc2cc(/C(C)=N/N=C(N)N)cc(/C(C)=N/N=C(N)N)c2)cc1 [Compound 1, N-(4-acetylphenyl)-N′-(3,5-diacetylphenyl)urea tris (amidinohydrazone)]
IC50 (E. Coli XL-1 blue strain): < 0.1 µM | percent inhibition of HIV replication as compared to control ([1]; HIV-1 NL4/3, 1.0 μM, d7): 15% | percent inhibition of HIV replication as compared to control ([1]; HIV-1 NL4/3, 1.0 μM, d10): 5% | percent inhibition of HIV replication as compared to control ([1]; HIV-1 NL4/3, 5.0 μM, d7): 52% | percent inhibition of HIV replication as compared to control ([1]; HIV-1 NL4/3, 5.0 μM, d10): 31% | percent inhibition of HIV replication as compared to control ([3]; 1.0 μM, d7): 23% | percent inhibition of HIV replication as compared to control ([3]; 1.0 μM, d10): 0% | percent inhibition of HIV replication as compared to control ([3]; 5.0 μM, d7): 72% | percent inhibition of HIV replication as compared to control ([3]; 5.0 μM, d10): 51%

— patent US20030203969A1, “Pharmaceutically active aromatic guanylhydrazones” (priority 2000, published 2003)
